From patent US20250145665A1, “MACROCYCLIC PEPTIDES USEFUL AS MODULATORS OF TNF ALPHA” (Bristol-Myers Squibb Company, priority 2023, published 2025)
Positions of bridges follow the written chain, without caps; N, C: chain ends. Non-standard residues stand in square brackets, D forms with d. Residues, ends and D or L forms follow the SMILES beside them. Bip(4'-COOH) = N[C@@H](Cc1ccc(-c2ccc(C(=O)O)cc2)cc1)C(=O)O; Bip(4'-NHAc) = CC(=O)Nc1ccc(-c2ccc(C[C@H](N)C(=O)O)cc2)cc1; Ala(morpholin-4-yl) = N[C@@H](CN1CCOCC1)C(=O)O; Phe(3-CONH2) = NC(=O)c1cccc(C[C@H](N)C(=O)O)c1; Bip = N[C@@H](Cc1ccc(-c2ccccc2)cc1)C(=O)O; Phe(2-Me) = Cc1ccccc1C[C@H](N)C(=O)O; Val(3-OH) = CC(C)(O)[C@H](N)C(=O)O; 2Pal = N[C@@H](Cc1ccccn1)C(=O)O; Chg = N[C@H](C(=O)O)C1CCCCC1; Aze = O=C(O)[C@@H]1CCN1; Sar = CNCC(=O)O

Molecular target: TNFα (Homo sapiens, UniProt P01375)
Experiment: TNF-Induced HEK-Blue Assay
Format: cell-based
Settings: HEK-Blue-CD40L cells, NF-kB-driven secreted alkaline phosphatase reporter; TNFα 0.5 ng/ml; 18 h; read-out: TNF induced HEK-Blue assay IC50 value

TNFα, sequence (P01375 77-233 limits assumed): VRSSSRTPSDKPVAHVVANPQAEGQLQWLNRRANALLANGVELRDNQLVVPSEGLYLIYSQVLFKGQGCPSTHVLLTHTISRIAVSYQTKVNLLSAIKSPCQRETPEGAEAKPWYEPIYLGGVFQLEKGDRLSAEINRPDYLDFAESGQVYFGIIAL

Structure (SMILES)	IC50
CC[C@H](C)[C@@H]1NC(=O)CSC[C@@H](C(=O)NCC(N)=O)NC(=O)[C@H](CC(C)C)NC(=O)[C@H](Cc2ccc(O)cc2)NC(=O)[C@H](C(C)C)NC(=O)[C@@H]2CCCN2C(=O)[C@H](C(C)C)NC(=O)[C@@H](CCCNC(=N)N)NC(=O)[C@H](CC(=O)O)NC(=O)[C@H](Cc2ccc(O)cc2)NC(=O)CN(C)C(=O)[C@H](Cc2ccc(-c3ccccc3)cc2)NC(=O)[C@H](Cc2ccc(-c3ccc(C(=O)O)cc3)cc2)NC1=O [Example 188] ({CH2CO}-I[Bip(4'-COOH)][Bip][Sar]YD[dR]VPVYLCG-NH2; thioether N-13)	< 50 nM
CC(=O)Nc1ccc(-c2ccc(C[C@@H]3NC(=O)[C@H](Cc4ccc(-c5ccccc5)cc4)NC(=O)[C@H](CN4CCOCC4)NC(=O)CSC[C@@H](C(=O)NCC(N)=O)NC(=O)[C@H](CC(C)C)NC(=O)[C@H](CCCNC(=N)N)NC(=O)[C@H](C(C)C)NC(=O)[C@@H]4CCCN4C(=O)[C@H](C(C)C)NC(=O)[C@H](CCCNC(=N)N)NC(=O)[C@H](CC(=O)O)NC(=O)[C@H](Cc4ccc(O)cc4)NC(=O)CNC3=O)cc2)cc1 [Example 192] ({CH2CO}-[Ala(morpholin-4-yl)][Bip][Bip(4'-NHAc)]GYDRVPVRLCG-NH2; thioether N-13)	50 to 200 nM
CC(=O)Nc1ccc(-c2ccc(C[C@@H]3NC(=O)[C@H](Cc4ccc(-c5ccccc5)cc4)NC(=O)[C@H](C(C)(C)O)NC(=O)CSC[C@@H](C(=O)NCC(N)=O)NC(=O)[C@H](CC(C)C)NC(=O)[C@H](Cc4ccc(O)cc4)NC(=O)[C@H](C(C)C)NC(=O)[C@@H]4CCCN4C(=O)[C@H](C(C)C)NC(=O)[C@H](CCCNC(=N)N)NC(=O)[C@H](CC(=O)O)NC(=O)[C@@H]4CCCN4C(=O)CN(C)C3=O)cc2)cc1 [Example 194] ({CH2CO}-[Val(3-OH)][Bip][Bip(4'-NHAc)][Sar]PDRVPVYLCG-NH2; thioether N-13)	50 to 200 nM
CC(=O)Nc1ccc(-c2ccc(C[C@@H]3NC(=O)[C@H](Cc4ccc(-c5ccccc5)cc4)NC(=O)[C@H](CN4CCOCC4)NC(=O)CSC[C@@H](C(=O)NCC(N)=O)NC(=O)[C@H](CC(C)C)NC(=O)[C@H](CCCNC(=N)N)NC(=O)[C@H](C(C)C)NC(=O)[C@@H]4CCCN4C(=O)[C@H](C(C)C)NC(=O)[C@@H](CCCNC(=N)N)NC(=O)[C@H](CC(=O)O)NC(=O)[C@H](Cc4ccc(O)cc4)NC(=O)CN(C)C3=O)cc2)cc1 [Example 195] ({CH2CO}-[Ala(morpholin-4-yl)][Bip][Bip(4'-NHAc)][Sar]YD[dR]VPVRLCG-NH2; thioether N-13)	< 50 nM
CC(=O)Nc1ccc(-c2ccc(C[C@@H]3NC(=O)[C@H](Cc4ccc(-c5ccccc5)cc4)NC(=O)[C@H](CN4CCOCC4)NC(=O)CSC[C@@H](C(=O)NCC(N)=O)NC(=O)[C@H](CC(C)C)NC(=O)[C@H](Cc4ccc(O)cc4)NC(=O)[C@H](C(C)C)NC(=O)[C@@H]4CCCN4C(=O)[C@H](C(C)C)NC(=O)[C@H](CCCNC(=N)N)NC(=O)[C@H](CC(=O)O)NC(=O)[C@@H]4CCCN4C(=O)CN(C)C3=O)cc2)cc1 [Example 196] ({CH2CO}-[Ala(morpholin-4-yl)][Bip][Bip(4'-NHAc)][Sar]PDRVPVYLCG-NH2; thioether N-13)	< 50 nM
CC(=O)Nc1ccc(-c2ccc(C[C@@H]3NC(=O)[C@H](Cc4ccc(-c5ccccc5)cc4)NC(=O)[C@H](Cc4c[nH]c5ccccc45)NC(=O)CSC[C@@H](C(=O)NCC(N)=O)NC(=O)[C@H](CC(C)C)NC(=O)[C@H](Cc4ccc(O)cc4)NC(=O)[C@H](C(C)C)NC(=O)[C@@H]4CCCN4C(=O)[C@H](C(C)C)NC(=O)[C@@H](CCCNC(=N)N)NC(=O)[C@H](CC(=O)O)NC(=O)[C@H](Cc4ccccn4)NC(=O)CN(C)C3=O)cc2)cc1 [Example 197] ({CH2CO}-W[Bip][Bip(4'-NHAc)][Sar][2Pal]D[dR]VPVYLCG-NH2; thioether N-13)	50 to 200 nM
CC(=O)Nc1ccc(-c2ccc(C[C@@H]3NC(=O)[C@H](Cc4ccc(-c5ccccc5)cc4)NC(=O)[C@H](CN4CCOCC4)NC(=O)CSC[C@@H](C(=O)NCC(N)=O)NC(=O)[C@H](CC(C)C)NC(=O)[C@H](CCCNC(=N)N)NC(=O)[C@H](C(C)C)NC(=O)[C@@H]4CCCN4C(=O)[C@H](C(C)C)NC(=O)[C@@H](CCCNC(=N)N)NC(=O)[C@H](CC(=O)O)NC(=O)[C@H](Cc4ccccn4)NC(=O)CN(C)C3=O)cc2)cc1 [Example 203] ({CH2CO}-[Ala(morpholin-4-yl)][Bip][Bip(4'-NHAc)][Sar][2Pal]D[dR]VPVRLCG-NH2; thioether N-13)	< 50 nM

Now from value to molecule:

IC50	Structure (SMILES)
200 to 2000 nM	CC(C)C[C@@H]1NC(=O)[C@H](Cc2ccc(O)cc2)NC(=O)[C@H](C(C)C)NC(=O)[C@@H]2CCCN2C(=O)[C@H](C(C)C)NC(=O)[C@@H](CCCNC(=N)N)NC(=O)[C@H](CC(=O)O)NC(=O)[C@H](Cc2ccc(O)cc2)NC(=O)CN(C)C(=O)[C@H](Cc2ccc(-c3ccccc3)cc2)NC(=O)[C@H](Cc2ccc(-c3ccc(C(=O)O)cc3)cc2)NC(=O)[C@H](Cc2c[nH]c3ccccc23)NC(=O)CSC[C@@H](C(=O)NCC(N)=O)NC1=O [Example 189] ({CH2CO}-W[Bip(4'-COOH)][Bip][Sar]YD[dR]VPVYLCG-NH2; thioether N-13)
50 to 200 nM	CC(=O)Nc1ccc(-c2ccc(C[C@@H]3NC(=O)[C@H](Cc4ccc(-c5ccc(C(=O)O)cc5)cc4)NC(=O)[C@H](CN4CCOCC4)NC(=O)CSC[C@@H](C(=O)NCC(N)=O)NC(=O)[C@H](CC(C)C)NC(=O)[C@H](Cc4ccccn4)NC(=O)[C@H](C(C)C)NC(=O)[C@@H]4CCN4C(=O)[C@H](C(C)C)NC(=O)[C@@H](CCCNC(=N)N)NC(=O)[C@H](CC(=O)O)NC(=O)[C@H](Cc4ccccn4)NC(=O)CN(C)C3=O)cc2)cc1 [Example 190] ({CH2CO}-[Ala(morpholin-4-yl)][Bip(4'-COOH)][Bip(4'-NHAc)][Sar][2Pal]D[dR]V[Aze]V[2Pal]LCG-NH2; thioether N-13)
50 to 200 nM	CC(=O)Nc1ccc(-c2ccc(C[C@@H]3NC(=O)[C@H](Cc4ccc(-c5ccc(C(=O)O)cc5)cc4)NC(=O)[C@H](CN4CCOCC4)NC(=O)CSC[C@@H](C(=O)NCC(N)=O)NC(=O)[C@H](CC(C)C)NC(=O)[C@H](CCCNC(=N)N)NC(=O)[C@H](C(C)C)NC(=O)[C@@H]4CCCN4C(=O)[C@H](C(C)C)NC(=O)[C@H](CCCNC(=N)N)NC(=O)[C@H](CC(=O)O)NC(=O)[C@H](Cc4ccc(O)cc4)NC(=O)CN(C)C3=O)cc2)cc1 [Example 191] ({CH2CO}-[Ala(morpholin-4-yl)][Bip(4'-COOH)][Bip(4'-NHAc)][Sar]YDRVPVRLCG-NH2; thioether N-13)
50 to 200 nM	CC(=O)Nc1ccc(-c2ccc(C[C@@H]3NC(=O)[C@H](Cc4ccc(-c5ccccc5)cc4)NC(=O)[C@H](C(C)(C)O)NC(=O)CSC[C@@H](C(=O)NCC(N)=O)NC(=O)[C@H](CC(C)C)NC(=O)[C@H](CCCNC(=N)N)NC(=O)[C@H](C(C)C)NC(=O)[C@@H]4CCCN4C(=O)[C@H](C(C)C)NC(=O)[C@H](CCCNC(=N)N)NC(=O)[C@H](CC(=O)O)NC(=O)[C@H](Cc4ccc(O)cc4)NC(=O)CN(C)C3=O)cc2)cc1 [Example 193] ({CH2CO}-[Val(3-OH)][Bip][Bip(4'-NHAc)][Sar]YDRVPVRLCG-NH2; thioether N-13)
< 50 nM	CC(=O)Nc1ccc(-c2ccc(C[C@@H]3NC(=O)[C@H](Cc4ccc(-c5ccc(C(=O)O)cc5)cc4)NC(=O)[C@H](CN4CCOCC4)NC(=O)CSC[C@@H](C(=O)NCC(N)=O)NC(=O)[C@H](CC(C)C)NC(=O)[C@H](CCCNC(=N)N)NC(=O)[C@H](C)NC(=O)[C@@H]4CCCN4C(=O)[C@H](C(C)C)NC(=O)[C@@H](CCCNC(=N)N)NC(=O)[C@H](CC(=O)O)NC(=O)[C@@H]4CCCN4C(=O)CN(C)C3=O)cc2)cc1 [Example 198] ({CH2CO}-[Ala(morpholin-4-yl)][Bip(4'-COOH)][Bip(4'-NHAc)][Sar]PD[dR]VPARLCG-NH2; thioether N-13)
< 50 nM	CC(=O)Nc1ccc(-c2ccc(C[C@@H]3NC(=O)[C@H](Cc4ccc(-c5ccc(C(=O)O)cc5)cc4)NC(=O)[C@H](CN4CCOCC4)NC(=O)CSC[C@@H](C(=O)NCC(N)=O)NC(=O)[C@H](CC(C)C)NC(=O)[C@H](Cc4ccccc4C)NC(=O)[C@H](C(C)C)NC(=O)[C@@H]4CCCN4C(=O)[C@H](C(C)C)NC(=O)[C@@H](CCCNC(=N)N)NC(=O)[C@H](CC(=O)O)NC(=O)[C@H](Cc4ccccn4)NC(=O)CN(C)C3=O)cc2)cc1 [Example 199] ({CH2CO}-[Ala(morpholin-4-yl)][Bip(4'-COOH)][Bip(4'-NHAc)][Sar][2Pal]D[dR]VPV[Phe(2-Me)]LCG-NH2; thioether N-13)
50 to 200 nM	CC(=O)Nc1ccc(-c2ccc(C[C@@H]3NC(=O)[C@H](Cc4ccc(-c5ccc(C(=O)O)cc5)cc4)NC(=O)[C@H](CN4CCOCC4)NC(=O)CSC[C@@H](C(=O)NCC(N)=O)NC(=O)[C@H](CC(C)C)NC(=O)[C@H](Cc4cccc(C(N)=O)c4)NC(=O)[C@H](C(C)C)NC(=O)[C@@H]4CCCN4C(=O)[C@H](C(C)C)NC(=O)[C@@H](CCCNC(=N)N)NC(=O)[C@H](CC(=O)O)NC(=O)[C@H](Cc4ccccn4)NC(=O)CN(C)C3=O)cc2)cc1 [Example 200] ({CH2CO}-[Ala(morpholin-4-yl)][Bip(4'-COOH)][Bip(4'-NHAc)][Sar][2Pal]D[dR]VPV[Phe(3-CONH2)]LCG-NH2; thioether N-13)
< 50 nM	CC(=O)Nc1ccc(-c2ccc(C[C@@H]3NC(=O)[C@H](Cc4ccc(-c5ccccc5)cc4)NC(=O)[C@H](CN4CCOCC4)NC(=O)CSC[C@@H](C(=O)NCC(N)=O)NC(=O)[C@H](CC(C)C)NC(=O)[C@H](CCCNC(=N)N)NC(=O)[C@H](C4CCCCC4)NC(=O)[C@@H]4CCCN4C(=O)[C@H](C(C)C)NC(=O)[C@@H](CCCNC(=N)N)NC(=O)[C@H](CC(=O)O)NC(=O)[C@H](Cc4ccccn4)NC(=O)CN(C)C3=O)cc2)cc1 [Example 201] ({CH2CO}-[Ala(morpholin-4-yl)][Bip][Bip(4'-NHAc)][Sar][2Pal]D[dR]VP[Chg]RLCG-NH2; thioether N-13)
200 to 2000 nM	CC(C)C[C@@H]1NC(=O)[C@H](CCCNC(=N)N)NC(=O)[C@H](C(C)C)NC(=O)[C@@H]2CCCN2C(=O)[C@H](C(C)C)NC(=O)[C@@H](CCCNC(=N)N)NC(=O)[C@H](CC(=O)O)NC(=O)[C@@H]2CCCN2C(=O)CN(C)C(=O)[C@H](Cc2ccc(-c3ccccc3)cc2)NC(=O)[C@H](Cc2ccc(-c3ccccc3)cc2)NC(=O)[C@H](CN2CCOCC2)NC(=O)CSC[C@@H](C(=O)NCC(N)=O)NC1=O [Example 202] ({CH2CO}-[Ala(morpholin-4-yl)][Bip][Bip][Sar]PD[dR]VPVRLCG-NH2; thioether N-13)
